Among the data in patent US9321762B2, “Quinazoline compounds, method for preparing the same and use thereof” (DEVELOPMENT CENTER FOR BIOTECHNOLOGY, priority 2013, dated 2016) are IC50 values, retold here.

Read-outs that look alike come from different tables or passages of the source.

In one assay the target is T1, B-Raf kinase (Homo sapiens, UniProt P15056).
T1 construct: purchased Upstate Biotechnology
In words: B-Raf kinase assay ([33P] incorporation into MEK1(K97R)). The class given is biochemical. The settings on record: class symbols; 8 μM ATP; read-out: IC50 against B-Raf kinase. In a few lines:
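Recombinant B-Raf (5 ng) phosphorylating 500 ng MEK1(K97R) with 8 μM ATP plus [33P]ATP, pH 7.5 Tris buffer, 30 min at 30 °C. Radiolabel incorporation counted by filter-binding scintillation; IC50 from 3-fold serial dilutions run in duplicate.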

Another assay has as its target T2, B-Raf(V600E) kinase (Homo sapiens, UniProt P15056, V600E).
T2 construct: purchased Upstate Biotechnology
In words: B-Raf(V600E) kinase assay ([33P] incorporation into MEK1(K97R)). It counts as biochemical. Conditions: class symbols; 8 μM ATP; read-out: IC50 against B-Raf(V600E) kinase. The protocol:
(§1) Inhibition of kinase activity by a test compound disclosed herein was estimated by quantifying the amount of [^33P] incorporation of a substrate in the presence of the test compound. Standard assay conditions were 5 ng of recombinant B-Raf(V600E) kinase (Upstate Biotechnology) with 500 ng MEK1 (K97R) in assay buffer (8 μM ATP, 0.5 μCi [^33P] ATP (specific activity 3000 Ci/mmol, PerkinElmer), 50 mM Tris/HCl (pH7.5), and 1 mM EGTA, 1 mM Na3VO4, 1% 2-mercaptoethanol, 0.1% Brij 35, and 0.2 mg/ml BSA), and the test compound (diluted with 4% DMSO) or DMSO alone (as a control) in a final volume of 25 μL. Reactions were incubated at 30° C. for 30 min and stopped by adding 3% phosphoric acid, harvested onto a 96-well GF/B UniFilter (PerkinElmer) using a unifilter harvester (PerkinElmer), and counted with a TopCount microplate scintillation counter (PerkinElmer). The IC50 values of inhibitors were determined after carrying out assays at 3-fold serially diluted concentrations of each compound in duplication. The results were analyzed using linear regression software (GraphPad Prism 4; GraphPad Software Inc.).

In another assay the target is T3, C-Raf kinase (Homo sapiens, UniProt P04049).
T3 construct: purchased Upstate Biotechnology
T3 sequence (P04049 whole entry): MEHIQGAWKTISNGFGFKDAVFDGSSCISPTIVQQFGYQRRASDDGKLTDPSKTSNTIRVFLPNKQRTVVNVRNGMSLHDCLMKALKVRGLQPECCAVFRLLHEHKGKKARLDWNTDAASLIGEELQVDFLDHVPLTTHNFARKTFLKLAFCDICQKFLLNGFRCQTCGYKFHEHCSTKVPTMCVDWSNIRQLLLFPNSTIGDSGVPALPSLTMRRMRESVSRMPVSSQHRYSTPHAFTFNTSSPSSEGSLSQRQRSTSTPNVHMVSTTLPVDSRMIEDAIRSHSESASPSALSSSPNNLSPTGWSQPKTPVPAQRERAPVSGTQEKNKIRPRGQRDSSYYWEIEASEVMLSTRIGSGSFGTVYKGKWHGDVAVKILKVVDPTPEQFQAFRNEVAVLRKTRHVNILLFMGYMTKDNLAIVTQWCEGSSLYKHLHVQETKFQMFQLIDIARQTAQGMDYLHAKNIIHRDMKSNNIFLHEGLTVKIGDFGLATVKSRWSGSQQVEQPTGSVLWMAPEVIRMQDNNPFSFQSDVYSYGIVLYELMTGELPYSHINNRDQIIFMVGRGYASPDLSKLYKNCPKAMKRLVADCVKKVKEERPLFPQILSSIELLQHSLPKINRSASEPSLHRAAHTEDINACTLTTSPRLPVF
Put plainly: C-Raf kinase assay ([33P] incorporation into MEK1(K97R)). The class given is biochemical. Conditions: class symbols; 8 μM ATP; read-out: IC50 against C-Raf kinase. Here is the method: as §1, with “were 2” for “were 5”, “recombinant C-Raf” for “recombinant B-Raf(V600E)”

The next assay addresses T4, VEGFR2 kinase (Homo sapiens, UniProt P35968).
T4 construct: VEGFR2 kinase domain alone, Millipore; purchased Millipore
In words: VEGFR2 radiometric kinase assay. It counts as biochemical. The settings on record: given as bound; 100 μM ATP; read-out: Inhibition activity, IC50 VEGFR2. Here is the method:
(§2) The inhibitory activity against VEGFR2 or EGFR was determined by radiometric kinase assay. The experimental condition for VEGFR2 kinase assay was 6.25 ng of recombinant VEGFR2 kinase (VEGFR2 kinase domain alone, Millipore), 5 μg of substrate Poly(Glu-Tyr) (4:1, Sigma), kinase reaction buffer (20 mM MOPS pH 7.0, 1 mM EDTA, 5% glycerol, 0.01% Brij-35, 0.1% β-mercaptoethanol, 1 mg/mL BSA, 100 μM ATP, and 0.1 μCi per well [^33P] ATP (specific activity 3000 Ci/mmol, PerkinElmer)), and the test compound (diluted with 4% DMSO) or DMSO alone (as a control) in a final volume of 25 μL. Reactions were incubated at 30° C. for 30 min and stopped by adding 3% phosphoric acid, harvested onto a 96-well GF/B UniFilter (PerkinElmer) using a unifilter harvester (PerkinElmer), and counted with a TopCount microplate scintillation counter (PerkinElmer).
(§3) Results of inhibition activity against VEGFR2 and EGFR kinases by the selected compounds, which have IC50 values on B-Raf kinase <300 nM, are summarized in Table 6.

A further assay deals with T5, EGFR kinase (Homo sapiens, UniProt P00533).
T5 construct: EGFR kinase domain alone, Millipore; purchased Millipore
T5 sequence (P00533 712-979 limits assumed): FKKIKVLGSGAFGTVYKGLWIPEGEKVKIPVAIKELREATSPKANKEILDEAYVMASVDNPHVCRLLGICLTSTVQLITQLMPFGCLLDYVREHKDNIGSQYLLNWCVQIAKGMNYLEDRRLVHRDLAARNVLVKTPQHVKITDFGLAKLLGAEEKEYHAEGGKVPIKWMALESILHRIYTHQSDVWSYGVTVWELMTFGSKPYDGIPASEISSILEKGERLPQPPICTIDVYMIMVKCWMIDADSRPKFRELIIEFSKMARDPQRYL
In words: EGFR radiometric kinase assay. The class given is biochemical. Conditions: 100 μM ATP, read-out: Inhibition activity, IC50 EGFR. The protocol: as §2
The experimental condition for EGFR kinase assay was 25 ng of EGFR kinase (EGFR kinase domain alone, Millipore), 3 μg of the substrate poly(Glu-Tyr), (Sigma), kinase reaction buffer (10 mM MOPS pH 7.0, 0.3 mM EDTA, 0.5% glycerol, 0.001% Brij-35, 10 mM MnCl2, 0.1 mg/ml BSA, 100 μM ATP, and 0.1 μCi per well [^33P]ATP (specific activity 3000 Ci/mmol, PerkinElmer)), and the test compound (diluted with 4% DMSO) or DMSO (as a control) in a final volume of 25 μL. Reactions were incubated at 30° C. for 30 min and stopped by adding 3% phosphoric acid, harvested onto a 96-well GF/B UniFilter (PerkinElmer) using a unifilter harvester (PerkinElmer), and counted with a TopCount microplate scintillation counter (PerkinElmer).
as §3

The subject of assay [1] is A375 melanoma cells and COLO205 colon cancer cells. In words: Cell proliferation assay (CellTiter-96). It counts as cell-based. Conditions: Homo sapiens; A375 or COLO205, 72 hours treatment; read-out: Cytotoxicity IC50 for A375 or COLO205. The protocol: The anti-proliferative activities of compounds of formula (I) against B-Raf(V600E) mutant human cancer cell lines, A375 melanoma cells and COLO205 colon cancer cells, were measured using the CellTiter™-96 assay kit (Promega) following the manufacturer's instructions. In brief, the cells were maintained in DMEM containing 10% FCS and incubated at 37° C. in 5% CO2 atmosphere. Cells were plated at a density of 2,000 cells/well on a 96-well plate and incubated for 24 h. Then, these cells were treated with different concentrations of the test compounds and incubated for another 72 hours. At the end of the incubation, CellTiter™-96 Aqueous One Solution Reagent (Promega) was added and incubated for another 4.0 hours. Cell viability was determined by measuring absorbance at 490 nm using EMax® microplate reader (Molecular Devices). Data were processed and analyzed using GraphPad Prism.

T2 sequence (P15056 whole entry V600E): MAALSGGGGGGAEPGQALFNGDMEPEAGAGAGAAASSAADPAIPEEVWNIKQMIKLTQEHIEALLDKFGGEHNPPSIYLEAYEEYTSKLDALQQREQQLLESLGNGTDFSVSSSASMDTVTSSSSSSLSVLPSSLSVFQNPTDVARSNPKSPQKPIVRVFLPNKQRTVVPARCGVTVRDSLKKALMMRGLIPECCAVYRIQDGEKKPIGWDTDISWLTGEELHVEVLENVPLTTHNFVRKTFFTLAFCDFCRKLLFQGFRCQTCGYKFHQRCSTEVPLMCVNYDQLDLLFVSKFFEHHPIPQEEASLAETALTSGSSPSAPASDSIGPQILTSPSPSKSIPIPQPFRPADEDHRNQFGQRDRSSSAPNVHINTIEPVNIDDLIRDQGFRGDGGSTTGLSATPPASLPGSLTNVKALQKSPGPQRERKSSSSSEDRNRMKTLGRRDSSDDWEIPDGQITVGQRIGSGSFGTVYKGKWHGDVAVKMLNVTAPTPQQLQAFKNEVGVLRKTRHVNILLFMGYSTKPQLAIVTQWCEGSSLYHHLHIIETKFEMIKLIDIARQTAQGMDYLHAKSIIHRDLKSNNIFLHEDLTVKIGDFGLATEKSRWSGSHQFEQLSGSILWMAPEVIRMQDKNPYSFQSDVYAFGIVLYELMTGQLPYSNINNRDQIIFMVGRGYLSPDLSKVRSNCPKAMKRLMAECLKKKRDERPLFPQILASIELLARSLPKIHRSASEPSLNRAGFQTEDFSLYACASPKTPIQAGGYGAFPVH
T4 sequence (P35968 834-1162 limits assumed): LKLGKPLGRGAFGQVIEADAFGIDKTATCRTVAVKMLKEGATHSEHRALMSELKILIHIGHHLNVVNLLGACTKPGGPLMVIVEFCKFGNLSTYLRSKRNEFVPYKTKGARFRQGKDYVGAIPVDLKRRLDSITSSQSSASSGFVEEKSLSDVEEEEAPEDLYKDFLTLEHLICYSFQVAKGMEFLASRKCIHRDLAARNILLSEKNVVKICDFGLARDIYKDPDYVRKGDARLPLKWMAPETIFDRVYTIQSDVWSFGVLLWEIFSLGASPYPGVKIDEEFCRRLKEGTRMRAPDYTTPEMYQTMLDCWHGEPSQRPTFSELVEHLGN
T1 sequence (P15056 whole entry): as the sequence (P15056 whole entry V600E) above, with E600V counted along it

`CCCS(=O)(=O)Nc1ccc(F)c(Nc2ncnc3ccc(-c4ccc(F)nc4)cc23)c1F` [compound 3, N-(2,4-difluoro-3-(6-(6-fluoropyridin-3-yl)-quinazolin-4-ylamino)phenyl)propane-1-sulfonamide]: the IC50 was below 300 nM on B-Raf kinase; below 300 nM on B-Raf(V600E) kinase; below 300 nM on C-Raf kinase; above 3000 nM at VEGFR2 kinase; above 3000 nM on EGFR kinase (given as bound); below 2000 nM in assay [1].

In the case of `CCCS(=O)(=O)Nc1ccc(F)c(Nc2ncnc3ccc(-c4ccnc(OC)c4)cc23)c1F` [compound 31, N-(2,4-difluoro-3-(6-(2-methoxypyridin-4-yl)quinazolin-4-ylamino)phenyl)propane-1-sulfonamide], the IC50 at B-Raf kinase was below 300 nM; on B-Raf(V600E) kinase, below 300 nM; at C-Raf kinase, below 300 nM; at VEGFR2 kinase, above 3000 nM; on EGFR kinase (class symbols), 300 to 1000 nM; in assay [1], below 2000 nM.

Turning to `CCCS(=O)(=O)Nc1ccc(F)c(Nc2ccnc3ccc(-c4ccnc(F)c4)cc23)c1F` [compound 25, N-(2,4-difluoro-3-(6-(2-fluoropyridin-4-yl)quinolin-4-ylamino)phenyl)propane-1-sulfonamide], the IC50 on B-Raf kinase is below 300 nM; at B-Raf(V600E) kinase, below 300 nM; at C-Raf kinase, below 300 nM; on VEGFR2 kinase, above 3000 nM; on EGFR kinase (given as bound), above 3000 nM; in assay [1], below 2000 nM.

Take `CCCS(=O)(=O)Nc1ccc(F)c(Nc2ncnc3ccc(-c4ccncc4)cc23)c1F` [compound 12, N-(2,4-difluoro-3-(6-(pyridin-4-yl)-quinazolin-4-ylamino)phenyl)propane-1-sulfonamide]: the IC50 at B-Raf kinase is below 300 nM; at B-Raf(V600E) kinase, below 300 nM; on C-Raf kinase it was below 300 nM; on VEGFR2 kinase it was above 3000 nM; at EGFR kinase (class symbols), 300 to 1000 nM; in assay [1] it was below 2000 nM.

As for `CCCS(=O)(=O)Nc1ccc(F)c(Nc2ncnc3cc(OC)c(-c4cccnc4F)cc23)c1F` [compound 28, N-(2,4-difluoro-3-(6-(2-fluoropyridin-3-yl)-7-methoxyquinazolin-4-ylamino)phenyl)propane-1-sulfonamide], the IC50 is below 300 nM on B-Raf kinase; below 300 nM on B-Raf(V600E) kinase; below 300 nM at C-Raf kinase; above 3000 nM at VEGFR2 kinase; 300 to 1000 nM at EGFR kinase (class symbols); below 2000 nM in assay [1].

Regarding `CCCS(=O)(=O)Nc1ccc(F)c(Nc2ncnc3ccc(-c4cnc(OC)c([N+](=O)[O-])c4)cc23)c1F` [compound 58, N-(2,4-difluoro-3-(6-(6-methoxy-5-nitropyridin-3-yl)quinazolin-4-ylamino)phenyl)propane-1-sulfonamide], the 50% inhibitory concentration (IC50) on B-Raf kinase was below 300 nM; at B-Raf(V600E) kinase, below 300 nM; on C-Raf kinase it was below 300 nM; at VEGFR2 kinase, above 3000 nM; at EGFR kinase (given as bound) it was above 3000 nM; in assay [1], below 2000 nM.

Regarding `CCCS(=O)(=O)Nc1ccc(F)c(Nc2ncnc3ccc(-c4cccc(OCCN(C)C)n4)cc23)c1F` [compound 39, N-(3-(6-(6-(2-(dimethylamino)ethoxy)-pyridin-2-yl)quinazolin-4-ylamino)-2,4-difluorophenyl)propane-1-sulfonamide], the IC50 at B-Raf kinase was below 300 nM; at B-Raf(V600E) kinase it was below 300 nM; on C-Raf kinase it was 1000 to 10000 nM; on VEGFR2 kinase it was above 3000 nM; on EGFR kinase (given as bound), above 3000 nM; in assay [1], below 2000 nM.

Regarding `CCCS(=O)(=O)Nc1ccc(F)c(Nc2ncnc3ccc(-c4cccnc4F)cc23)c1F` [compound 1, N-(2,4-difluoro-3-(6-(2-fluoropyridin-3-yl)quinazolin-4-ylamino)phenyl)propane-1-sulfonamide], the IC50 on B-Raf kinase was below 300 nM; on B-Raf(V600E) kinase, below 300 nM; at C-Raf kinase, below 300 nM; on VEGFR2 kinase it was above 3000 nM; at EGFR kinase (given as bound) it was above 3000 nM; in assay [1], below 2000 nM.

Take `CCCS(=O)(=O)Nc1ccc(F)c(Nc2ncnc3ccc(-c4cccc(OCCOC)n4)cc23)c1F` [compound 38, N-(2,4-difluoro-3-(6-(6-(2-methoxyethoxy)pyridin-2-yl)quinazolin-4-ylamino)phenyl)propane-1-sulfonamide]: the IC50 was below 300 nM at B-Raf kinase; below 300 nM on B-Raf(V600E) kinase; 300 to 1000 nM on C-Raf kinase; above 3000 nM at VEGFR2 kinase; 1000 to 3000 nM at EGFR kinase (class symbols); below 2000 nM in assay [1].

For `CCCS(=O)(=O)Nc1ccc(F)c(Nc2ccnc3ccc(-c4ccncc4)cc23)c1F` [compound 14, N-(2,4-difluoro-3-(6-(pyridin-4-yl)quinolin-4-ylamino)phenyl)propane-1-sulfonamide], the IC50 at B-Raf kinase is below 300 nM; on B-Raf(V600E) kinase, below 300 nM; on C-Raf kinase, below 300 nM; on VEGFR2 kinase it was above 3000 nM; at EGFR kinase (class symbols), 1000 to 3000 nM; in assay [1] it was below 2000 nM.

`CCCS(=O)(=O)Nc1ccc(F)c(Nc2ncnc3ccc(-c4ccnc(OCCN(C)C)c4)cc23)c1F` [compound 45, N-(3-(6-(2-(2-(dimethylamino)ethoxy)-pyridin-4-yl)quinazolin-4-ylamino)-2,4-difluorophenyl)propane-1-sulfonamide]: the IC50 at B-Raf kinase is below 300 nM; at B-Raf(V600E) kinase, below 300 nM; at C-Raf kinase it was 1000 to 10000 nM; at VEGFR2 kinase, above 3000 nM; at EGFR kinase (given as bound) it was above 3000 nM; in assay [1] it was below 2000 nM.
